Experimental data from ChEMBL document CHEMBL1201862, “PubChem BioAssay data set” (2004).
Activity calls are given as the source filed them. No stated cut-off is given here; in the data, actives have a measured IC50 and inactives only a lower limit.

These molecules were tested against Envelope glycoprotein gp160 (Human immunodeficiency virus 1, UniProt Q6QLK5) (assay: inhibitors of HIV fusion peptide binding, primary screen, biochemical, uHTS, fluorescence dequenching (AID 1986)).
Chain of Envelope glycoprotein gp160 (Q6QLK5 whole entry, the tested form may be a part): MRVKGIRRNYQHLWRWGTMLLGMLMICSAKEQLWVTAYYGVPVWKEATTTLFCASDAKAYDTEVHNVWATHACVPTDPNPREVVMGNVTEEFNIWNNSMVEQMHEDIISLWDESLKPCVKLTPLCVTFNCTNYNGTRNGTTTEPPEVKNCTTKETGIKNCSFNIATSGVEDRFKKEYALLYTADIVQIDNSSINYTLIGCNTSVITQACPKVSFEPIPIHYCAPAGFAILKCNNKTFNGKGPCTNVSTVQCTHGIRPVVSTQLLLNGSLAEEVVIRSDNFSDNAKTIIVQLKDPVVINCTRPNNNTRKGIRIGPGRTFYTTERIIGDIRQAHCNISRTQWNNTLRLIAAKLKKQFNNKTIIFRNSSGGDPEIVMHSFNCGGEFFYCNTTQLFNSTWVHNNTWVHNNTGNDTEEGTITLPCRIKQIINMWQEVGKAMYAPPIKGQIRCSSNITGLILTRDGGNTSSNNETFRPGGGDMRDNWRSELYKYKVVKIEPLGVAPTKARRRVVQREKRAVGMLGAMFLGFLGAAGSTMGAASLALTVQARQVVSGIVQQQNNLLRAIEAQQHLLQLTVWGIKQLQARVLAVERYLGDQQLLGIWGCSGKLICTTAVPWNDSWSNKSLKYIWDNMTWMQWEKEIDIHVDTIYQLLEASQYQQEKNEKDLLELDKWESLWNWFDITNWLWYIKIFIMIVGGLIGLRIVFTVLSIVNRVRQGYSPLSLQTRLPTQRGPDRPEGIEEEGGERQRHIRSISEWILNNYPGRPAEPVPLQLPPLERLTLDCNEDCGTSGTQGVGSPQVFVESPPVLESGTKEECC
In the case of `O=C(CCN1C(=O)/C(=C\c2ccccc2F)SC1=S)Nc1ccc(C(=O)O)c(O)c1`, the IC50 is reported as 15.1 µM (active). In the case of `O=[N+]([O-])c1cc(Cl)cc(/C=N/NC(=S)Nc2ccc(S(=O)(=O)N3CCOCC3)cc2)c1O`, the IC50 is reported as 28.2 µM (active). For `COc1ccc(O)c(C(=O)c2cc(SCC(=O)O)c3nc4sc5c(c4c(=O)n3c2)CCCC5)c1`, the IC50 was 14.2 µM (active). With `COc1cc(/C=C2/C(=O)NN(c3ccc(C)c(Cl)c3)C2=O)cc([N+](=O)[O-])c1O` the IC50 was 30.2 µM (active).
